Here are results for 7 molecules from PMC2637613 (Basic & clinical pharmacology & toxicology, 2008).

Structures can show the parent of a compound that is named as a salt.

The conditions of data set [1]: read-out: Cmax (mean maximal plasma concentration), patients, ref Aravagiri et al. 1998, Hiemke et al. 2004, Suzuki et al. 2001, Yeung et al. 1993; cited from earlier work.
Data set [2] deals with T1, BCRP (Homo sapiens, UniProt Q9UNQ0).
T1 sequence (Q9UNQ0 1-655): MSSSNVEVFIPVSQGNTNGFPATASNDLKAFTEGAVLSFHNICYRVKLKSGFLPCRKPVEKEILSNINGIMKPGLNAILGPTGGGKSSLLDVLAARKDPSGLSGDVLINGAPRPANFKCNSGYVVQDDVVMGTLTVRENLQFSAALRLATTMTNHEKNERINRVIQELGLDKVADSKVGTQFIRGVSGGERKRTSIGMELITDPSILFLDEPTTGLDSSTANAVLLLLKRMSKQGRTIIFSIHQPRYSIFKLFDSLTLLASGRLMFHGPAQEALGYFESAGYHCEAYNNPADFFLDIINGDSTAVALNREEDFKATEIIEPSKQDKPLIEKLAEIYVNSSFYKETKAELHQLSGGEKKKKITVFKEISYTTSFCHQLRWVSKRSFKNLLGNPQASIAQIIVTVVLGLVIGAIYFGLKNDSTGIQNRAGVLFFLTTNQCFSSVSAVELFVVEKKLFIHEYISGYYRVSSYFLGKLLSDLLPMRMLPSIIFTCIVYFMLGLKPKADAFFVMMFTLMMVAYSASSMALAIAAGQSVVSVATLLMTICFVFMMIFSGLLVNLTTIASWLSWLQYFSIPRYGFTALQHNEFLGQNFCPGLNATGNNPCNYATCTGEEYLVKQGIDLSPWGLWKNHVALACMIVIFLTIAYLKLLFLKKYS
The experiment in a line: cell-based.

For data set [3] the following is noted: calculated from mean tissue to plasma AUC ratios; ref [16]; Aravagiri et al. 2002; Aravagiri et al. 1999; Manjunath and Venkateswarlu 2005; Hopenwasser et al. 2004; Sgaragli et al. 1995; Miyazaki et al. 1986; cited from earlier work.
Data set [4] concerns the target T1, BCRP. Conditions: estimated liver concentration divided by BCRP IC50 in MCF7/MX100 cells.

For the molecule `Cc1nc2n(c(=O)c1CCN1CCC(c3noc4cc(F)ccc34)CC1)CCCC2` [Risperidone], in data set [1], the Cmax was 400 nM.
In the case of `Cc1cc2c(s1)Nc1ccccc1N=C2N1CCN(C)CC1` [Olanzapine], in data set [1], the Cmax is 300 nM.
Broadly, the IC50 is the point on the concentration scale where inhibition reaches its midpoint. In the case of `OCCOCCN1CCN(C2=Nc3ccccc3Sc3ccccc32)CC1` [Quetiapine, quetiapine], in data set [2], the IC50 came out at 66.1 µM. Besides, the “Liver:plasma partition ratio” value in data set [3] was 3.5–8.7 ^8. Further, the Cmax in data set [1] was 800 nM. Further, the “Cmax * liver:plasma partition ratio/IC50” value in data set [4] was 0.04–0.10.
On to `Cc1nc2n(c(=O)c1CCN1CCC(c3noc4cc(F)ccc34)CC1)CCCC2O` (stereo not drawn) [Paliperidone, 9-hydroxy-risperidone], for which the midpoint of inhibition in data set [2], the IC50, lay at 51 µM. The “Liver:plasma partition ratio” value in data set [3] is on record as 67.5 ^5. Also, in data set [1], the Cmax was 400 nM. In addition, in data set [4], the “Cmax * liver:plasma partition ratio/IC50” value is recorded as 0.5.
In turn, `O=C(CCCN1CCC(O)(c2ccc(Cl)cc2)CC1)c1ccc(F)cc1` [Haloperidol] came in with an IC50 in data set [2] of more than 100 µM. In addition, the Cmax in data set [1] is 50 nM.
Take `CN1CCN(C2=Nc3cc(Cl)ccc3Nc3ccccc32)CC1` [Clozapine, clozapine]: the IC50 in data set [2] came out at 42 µM. Moreover, in data set [1], the Cmax is 2500 nM.
As for `CN(C)CCCN1c2ccccc2Sc2ccc(Cl)cc21` [Chlorpromazine, chlorpromazine hydrochloride], half-maximal inhibition in data set [2] (IC50) required 52.2 µM. Also, the “Liver:plasma partition ratio” value in data set [3] is 97.7 ^9. Moreover, the Cmax in data set [1] was 300 nM. For the same molecule, in data set [4], the “Cmax * liver:plasma partition ratio/IC50” value is reported as 0.6.
